Among the data in US7598245B2 (Vertex Pharmaceuticals Incorporated, priority 2003, dated 2009) are Ki values, retold here.

The assay addresses T1, PDK-1 (Homo sapiens, UniProt O15530).
T1 sequence (O15530 1-556): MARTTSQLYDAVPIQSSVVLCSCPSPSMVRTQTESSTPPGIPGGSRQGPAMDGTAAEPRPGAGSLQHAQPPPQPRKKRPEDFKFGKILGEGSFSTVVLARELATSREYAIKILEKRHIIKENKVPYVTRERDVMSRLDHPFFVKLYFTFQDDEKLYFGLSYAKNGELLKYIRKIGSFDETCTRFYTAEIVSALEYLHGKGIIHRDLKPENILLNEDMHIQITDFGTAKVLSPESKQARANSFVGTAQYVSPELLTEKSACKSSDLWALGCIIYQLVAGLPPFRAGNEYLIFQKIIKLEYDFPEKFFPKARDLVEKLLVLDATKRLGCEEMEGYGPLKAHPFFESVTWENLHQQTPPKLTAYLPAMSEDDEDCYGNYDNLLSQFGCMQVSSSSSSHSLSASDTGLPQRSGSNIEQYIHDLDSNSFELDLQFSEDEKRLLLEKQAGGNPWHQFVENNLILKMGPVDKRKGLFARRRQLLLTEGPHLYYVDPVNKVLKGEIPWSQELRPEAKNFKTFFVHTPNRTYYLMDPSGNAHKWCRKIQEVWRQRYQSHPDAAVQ
The assay can be described thus: PDK-1 inhibition, radioactive-phosphate incorporation assay. The class given is biochemical. As to conditions: 40 μM ATP. The procedure:
Compounds were screened for their ability to inhibit PDK-1 using a radioactive-phosphate incorporation assay (Pitt and Lee, J. Biomol. Screen., (1996) 1, 47). Assays were carried out in a mixture of 100 mM HEPES (pH 7.5), 10 mM MgCl2, 25 mM NaCl, 2 mM DTT. Final substrate concentrations in the assay were 40 μM ATP (Sigma Chemicals) and 65 μM peptide (PDKtide, Upstate, Lake Placid, N.Y.). Assays were carried out at 30° C. and 25 nM PDK-1 in the presence of ˜27.5 nCi/μL of [γ-^32P]ATP (Amersham Pharmacia Biotech, Amersham, UK). An assay stock buffer solution was prepared containing all of the reagents listed above, with the exception of ATP, and the test compound of interest. 15 μl of the stock solution was placed in a 96 well plate followed by addition of 1 μl of 0.5 mM DMSO stock containing the test compound (final compound concentration 25 μM, final DMSO concentration […]). The plate was preincubated for about 10 minutes at 30° C. and the reaction initiated by addition of 4 μl ATP (final concentration 40 μM).
The reaction was stopped after 10 minutes by the addition of 100 μL 100 mM phosphoric acid, 0.01% Tween-20. A phosphocellulose 96 well plate (Millipore, Cat no. MAPHNOB50) was pretreated with 100 μL 100 mM phosphoric acid, 0.01% Tween-20 prior to the addition of the reaction mixture (100 μL). The spots were left to soak for at least 5 minutes, prior to wash steps (4×200 μL 100 mM phosphoric acid, 0.01% Tween-20). After drying, 20 μL Optiphase ‘SuperMix’ liquid scintillation cocktail (Perkin Elmer) was added to the well prior to scintillation counting (1450 Microbeta Liquid Scintillation Counter, Wallac).
For `COc1cc(Nc2ncn(-c3ccccc3)n2)cc(OC)c1OC` [Compound I-42], the inhibition constant (Ki) lay within 1000 to 10000 nM.

`OC[C@H]1CCCN(c2cc(-n3cnc(Nc4ccccc4)n3)ccn2)C1` [Compound I-65]: the Ki lay in the range of 1000 to 10000 nM.

For the molecule `CC(=O)N1[C@H](C)CN(c2cc(-n3cnc(Nc4ccccc4)n3)ccn2)C[C@@H]1C` [Compound I-74], the inhibitory constant (Ki) is below 1000 nM.

Regarding `c1ccc(-n2cnc(Nc3ccc(N4CCOCC4)nc3)n2)cc1` [Compound I-134], the inhibition constant Ki was 1000 to 10000 nM.

The Ki is the equilibrium dissociation constant of an inhibitor or competing ligand from its target.
